In data set [1] the test system is Bax protein in MDA-MB-231 cells. Briefly: anti-Bax antibody flow cytometry. The note with it: MDA-MB-231, concentration not stated (5 or 10 µM), 24 h. The format is cell-based, human. As to the method: (§1) The effect of the tested compounds on the intrinsic mitochondrial pathway of programmed cell death was further assessed. For this purpose, the concentration of the proapoptotic Bax protein from the Bcl-2 family was examined. The concentration of this protein was analyzed in breast cancer cells after treatment with novel compounds at concentrations of 1 and 5 µM for the MCF-7 line and 5 and 10 µM for the MDA-MB-231 line.
(§2) An anti-Bax FITC-conjugated antibody was applied to evaluate the effect of tested compounds on the concentration of Bax protein in this experiment. First, MCF-7 and MDA-MB-231 cells were seeded into 6-well plates at 5 × 10^5 cells per well. Test compounds 2b, 12b, and 14b were then added at concentrations of 1 and 5 µM and 5 and 10 µM for MCF-7 and MDA-MB-231, respectively. The concentration of doxorubicin as a reference compound was 1 and 5 µM for both lines. After 24 h of incubation, cells were harvested, centrifuged, washed with 1 mL of PBS, and then fixed with 4% paraformaldehyde for 15 min at RT. After removal of the paraformaldehyde, cells were washed with PBS, then resuspended in 0.5 mL of cold 90% methanol, and frozen at −20 °C. […] The prepared samples were read immediately using the BD FACS Canto II flow cytometer (Becton Dickinson Biosciences, San Jose, CA, USA).
(In general: A flow cytometer gives signals particle by particle.)

In data set [2] the test system is caspase-9 in MDA-MB-231 cells. The data set can be described thus: FLICA caspase-9 flow cytometry. The format is cell-based, human. The settings on record: MDA-MB-231, 24 h, concentration not given. As to the method: To further analyze the compounds’ effects on the intrinsic pathway of the process of programmed cell death, it was decided to assess the expression of initiator caspase-9 on MCF-7 and MDA-MB-231 cell lines after 24 h of treatment using the flow cytometry method. Caspase-9 is an initiator caspase that directly activates executive caspase-3; as such, it has a significant effect on apoptosis. […] For the MDA-MB-231 line, the results were even more prominent, with every tested compound and concentration displaying a notable increase in cells with active caspase-9.
To determine the effects of the novel compounds on the caspase-9 activity, the FLICA Caspase-9 Assay Kit was applied (ImmunoChemistry Technologies, Bloomington, MN, USA). MCF-7 and MDA-MB-231 cells were seeded on 6-well plates (5 × 10^5 cells per well) and incubated for 24 h. Next, they were treated with tested compounds 2b, 12b, and 14b in a concentration of 1 and 5 µM for the MCF-7 cell line and 5 and 10 µM for the MDA-MB-231 cell line and the reference drug, doxorubicin hydrochloride, in a concentration of 1 and 5 µM for both lines for 24 h. […] Prepared samples were evaluated by a BD FACSCanto II flow cytometer (Becton Dickinson Biosciences, San Jose, CA, USA). For each sample, 1 × 10^4 events were analyzed. […]

Data set [3] relates to Bax protein in MCF-7 cells. Briefly: anti-Bax antibody flow cytometry. The settings on record: MCF-7, 5 μM, 24 h. Type of data set: cell-based, human. On the procedure:
as §1, §2

Data set [4] concerns cytochrome C in MCF-7 cells. The data set can be described thus: cytochrome C ELISA. The format is cell-based, human. The settings on record: MCF-7, 5 μM, 24 h. As to the method:
(§3) The influence of the examined compounds on the level of cytochrome C, one of the crucial proteins of the intrinsic pathway of programmed cell death, was assessed. This protein is released into the cytoplasm from the mitochondrial intermembrane space as a result of the decrease in mitochondrial membrane potential. […] The most significant result was reported for compound 14b at a concentration of 5 μM in the MCF-7 cell line and 10 µM in the MDA-MB-231 cell line, where the concentration of cytochrome C was 9.54 ng/mL and 15.26 ng/mL, respectively (Figure 10).
(§4) Using a SimpleStep ELISA kit (Abcam, Cambridge, UK), we determined the levels of cytochrome C and caspase-3 in cells’ lysates with 2b, 12b, and 14b (1 and 5 μM for the MCF-7 cell line and 5 and 10 μM for the MDA-MB-231) and doxorubicin in concentrations of 1 and 5 μM for both lines after 24 h incubation. Assays were performed according to the manufacturer’s protocols.
For orientation: An ELISA detects its analyte on a solid surface through an enzyme-linked reagent.

Data set [5] concerns cytochrome C in MDA-MB-231 cells. The data set can be described thus: cytochrome C ELISA. The format is cell-based, human. The note with it: MDA-MB-231, 10 μM, 24 h. On the procedure: as §3, §4
Another data set deals with caspase-3 in MCF-7 cells. Briefly: caspase-3 ELISA. The note with it: MCF-7, 1 μM, 24 h. The format is cell-based, human. As to the method: To confirm the activity of the caspase pathway, an effector caspase-3 was assayed on MCF-7 and MDA-MB-231 cell lines after 24 h of treatment using the ELISA method. Novel 4-thiazolidinone derivatives were tested in concentrations of 1 and 5 μM for the MCF-7 cell line and 5 and 10 μM for the MDA-MB-231 cell line.
as §4

A further data set relates to HOP-92. The note with it: human, 48 h.
In another data set the test system is U251. The note with it: human, 48 h.
For a further data set, the system named is M14. The note with it: human, 48 h.
In another data set the test system is IGROV1. The note with it: human, 48 h.

In [1], `CC(C(=O)O)N1C(=O)/C(=C/C=C/c2ccc([N+](=O)[O-])o2)SC1=S` (stereo not shown) [2b, 2-((Z)-5-((E)-3-(5-Nitrofuran-2-yl)allylidene)-4-oxo-2-thioxothiazolidin-3-yl)propanoic acid] displayed a Bax-positive cell population of 26.33%. Also, in data set [2], the “cells with active caspase-9” value is given as 83.95%.

In the case of `O=C(O)CCCCCN1C(=O)/C(=C/C=C/c2ccc([N+](=O)[O-])o2)SC1=S` [14b, 6-((Z)-5-((E)-3-(5-nitrofuran-2-yl)allylidene)-4-oxo-2-thioxothiazolidin-3-yl)hexanoic acid], the Bax-positive cell population in [3] is listed as 14.67%. In addition, the “concentration of cytochrome C” value in [4] is 9.54 ng/mL; in [5] it was 15.26 ng/mL. In the data set with caspase-3 in MCF-7 cells, the “change of caspase-3 concentration” value is recorded as “statistically significant result”. For the same molecule, the CC50 turned out to be 5.84 µM with HOP-92, 5.02 µM in the data set on U251 and 3.23 µM in the data set on M14.

For `O=C(O)CCCN1C(=O)/C(=C/C=C/c2ccc([N+](=O)[O-])o2)SC1=S` [13b, 4-((Z)-5-((E)-3-(5-Nitrofuran-2-yl)allylidene)-4-oxo-2-thioxothiazolidin-3-yl)butanoic acid], in the data set with IGROV1, the CC50 is 7.77 µM.

For the origin of these results see publication PMC12655351, “Synthesis and Anticancer Activity Evaluation of New 5-((5-Nitrofuran-2-yl)allylidene)-2-thioxo-4-thiazolidinones” (Pharmaceuticals, 2025).
